Measurements from patent US9925205B2, “Compositions of multicationic drugs for reducing interactions with polyanionic biomolecules and methods of use thereof” (Insmed Incorporated, priority 2007, dated 2018).
Values joined by “and” are separate entries in the source; they are usually repeats but may differ in a detail not shown here. Equal values may be shown once. Where a name gives a salt, the structure may show the parent alone. Each block holds one compound with its values, some of them ahead of it.

How the values were obtained:
[1] = Binding of amikacin to alginate in saline, free amikacin separated on Centricon-10 filter; conditions: for AMKAlg (bound amikacin, AMKt-AMKf) / AMKAlg/AMKf / AMKfree: saline, no citrate; for AMKfree: total amikacin 92.5 ug/mL
Procedure: (§1) The binding of a multicationic drug, such as amikacin, to alginate in presence salts of various (one-, two- and three-protonic) acids was tested. To study the effect of binding of amikacin to alginate, amikacin sulfate, Na citrate and Na alginate were mixed at different proportions and then free (unbound) amikacin was separated on a Cetricon-10 filtering device (MWCO 10 kD). In the absence of citrate, amikacin binds to alginate only, and the amikacin-alginate binding coefficient can be calculated from equation:
[formula] where bound amikacin can be found by subtracting free from total, and alginate free concentration is assumed to be equal to the total concentration due to excess of alginate over amikacin.
As alginate concentration increases, amikacin free measured in permeate decreases (Table 1). According to Equation 1 the ratio AMKAlg/AMKf should be proportional to the concentration of alginate, and the slope of this dependence should equal to the binding coefficient.
If one use a linear regression, the slope obtained gives us an estimate of the amikacin-alginate binding coefficient of PAlg=0.76 (mg/mL)^−1. This means that in presence of 1/PAlg˜1.3 mg/mL alginate approximately half of all amikacin will be bound to alginate.

[2] = Amikacin-citrate binding determined indirectly from competitive binding with alginate (Centricon filter); design: AMKAlg (AMKtot—AMKperm) / AMKfree / AMKcitrate: unit not given here
Procedure: as §1, with “equation: […]” for “equation:”
In the presence of citrate, amikacin can bind to both alginate and citrate. The amikacin-citrate complex is not large enough to be retained by Centricon filter and will be measured as “free” amikacin, which is actually a sum of free and citrate bound amikacin. For that reason amikacin-citrate binding can not be measured directly. It can, however, be determined indirectly from competitive binding, knowing amikacin-alginate binding coefficient PAlg.
Amikacin-citrate binding coefficient was Pcit=0.076 mM^−1. Thus in the presence of 1/Pcit˜13 mM citrate the concentration of amikacin bound to citrate is approximately equal to the concentration of free amikacin. As one can see from the above data, citrate can compete for amikacin with alginate thus reducing amount of amikacin bound to alginate. 1% Alginate can reduce AMK free concentration ˜7-fold. Citrate at 40 mM reduces this effect increasing unbound AMK ˜2.5 fold.

[3] = Effect of pH on ability of citrate to compete with alginate for amikacin (Centricon-10, TDX); format: binding
Procedure: How pH affects the ability of citrate to compete with alginate for amikacin was also tested. Here 0.5 mL sodium alginate (2%) was mixed with 0.4 mL sodium citrate (200 mM) and 0.1 mL amikacin sulfate (1 mg/mL), giving corresponding final concentrations of 1%, 80 mM, and 100 ug/mL, respectively. Two controls using either alginate or citrate alone were employed. Samples were incubated for 10 minutes at 37° C. and unbound amikacin was separated by centrifuging in Centrico-10 device for 30 minutes at 4000 rpm. Amikacin in permeate was measured by TDX (Abbott) and presented as % of total (Table 3).

[4] = Effect of mono- and multi-protonic acid salts on binding of amikacin to alginate
Procedure: Various salts were tested for their ability to compete with alginate. Amikacin sulfate (0.1 mL of 1 mg/ml) was added to 0.4 mL solution of 1% Na Alginate and 0.5 mL solution of 200 mM Na salt of an Acid at pH 6.0. Samples were incubated 10 minutes at 37° C. and centrifuged in Centricon-10 for 30 minutes at 4000 rpm. Filtrate was diluted 2 fold with TDX buffer and analyzed for AMK.

P. Aeruginosa PAC1 = test: In-vitro bioactivity of amikacin, modified disk Kirby-Bauer agar diffusion method; format: cell-based; conditions: for Zone size (mm): three values
Procedure: It has been shown elsewhere […] that amikacin-alginate binding can in fact reduce amikacin bioactivity against PA. One may ask whether binding to citrate will preserve bioactivity or inhibit it similar to alginate. In order to address this, activity of amikacin against P. Aeruginosa PAC1 using modified disk Kirby-Bauer agar diffusion method was tested. […] Absence of supplements was used as a control.
Activity was determined using modified disk Kirby-Bauer agar diffusion method and PAC1 PA strain.

[5] = Effect of pH on ability of citrate to compete with alginate for amikacin (Centricon-10, TDX); format: binding; remark: listed apart in the source
[6] = alginate 6 mg/mL, citrate 60 mM
[7] = alginate 10 mg/mL, citrate 40 mM
[8] = alginate 14 mg/mL, citrate 20 mM
[9] = alginate 16 mg/mL, citrate 10 mM
[10] = Alginate 1%, 80 mM Citrate at pH 6-7
[11] = 0.1 mL 1 mg/ml amikacin sulfate + 0.4 mL 1% Na Alginate + 0.5 mL 200 mM Na salt of the acid, pH 6.0, 10 minutes at 37° C.

1/PAlg, alginate concentration at which approximately half of all amikacin is bound to alginate [1]: ~1.3 mg/mL
reduction of AMK free concentration by alginate ([1]; 1% Alginate): ~7 fold
AMKAlg (bound amikacin, AMKt-AMKf) ([1]; alginate 0 mg/mL): 0 µg/mL
AMKAlg/AMKf ([1]; alginate 0 mg/mL): 0
AMKfree ([1]; alginate 0 mg/mL): 92.5 µg/mL
AMKAlg (bound amikacin, AMKt-AMKf) ([1]; alginate 6 mg/mL): 72.5 µg/mL
AMKAlg/AMKf ([1]; alginate 6 mg/mL): 3.63
AMKfree ([1]; alginate 6 mg/mL): 20 µg/mL
AMKAlg (bound amikacin, AMKt-AMKf) ([1]; alginate 10 mg/mL): 79.9 µg/mL
AMKAlg/AMKf ([1]; alginate 10 mg/mL): 6.34
AMKfree ([1]; alginate 10 mg/mL): 12.6 µg/mL
AMKAlg (bound amikacin, AMKt-AMKf) ([1]; alginate 14 mg/mL): 84.5 µg/mL
AMKAlg/AMKf ([1]; alginate 14 mg/mL): 10.56
AMKfree ([1]; alginate 14 mg/mL): 8 µg/mL
AMKAlg (bound amikacin, AMKt-AMKf) ([1]; alginate 16 mg/mL): 86 µg/mL
AMKAlg/AMKf ([1]; alginate 16 mg/mL): 13.23
AMKfree ([1]; alginate 16 mg/mL): 6.5 µg/mL
PAlg AMK-Alginate binding coefficient ([1]; slope of AMKAlg/AMKf vs alginate concentration, linear regression): 0.76 (mg/ml)^−1
1/Pcit, citrate concentration at which amikacin bound to citrate approximately equals free amikacin [2]: ~13 mM
increase of unbound AMK by citrate ([2]; Citrate at 40 mM, 1% Alginate): ~2.5 fold
AMKAlg (AMKtot—AMKperm) ([2]; alginate 0 mg/mL, citrate 0 mM): 0
AMKcit/AMKf ([2]; alginate 0 mg/mL, citrate 0 mM): 0
AMKcitrate ([2]; alginate 0 mg/mL, citrate 0 mM): 0
AMKfree ([2]; alginate 0 mg/mL, citrate 0 mM): 92.5
AMKperm ([2]; alginate 0 mg/mL, citrate 0 mM): 92.5 µg/mL
AMKAlg (AMKtot—AMKperm) [2, 6]: 40.9
AMKcit/AMKf [2, 6]: 4.72
AMKcitrate [2, 6]: 42.59
AMKfree [2, 6]: 9.01
AMKperm [2, 6]: 51.6 µg/mL
AMKAlg (AMKtot—AMKperm) [2, 7]: 60.5
AMKcit/AMKf [2, 7]: 3.00
AMKcitrate [2, 7]: 24.00
AMKfree [2, 7]: 8.00
AMKperm [2, 7]: 32.0 µg/mL
AMKAlg (AMKtot—AMKperm) [2, 8]: 77
AMKcit/AMKf [2, 8]: 1.13
AMKcitrate [2, 8]: 8.23
AMKfree [2, 8]: 7.27
AMKperm [2, 8]: 15.5 µg/mL
AMKAlg (AMKtot—AMKperm) [2, 9]: 82.4
AMKcit/AMKf [2, 9]: 0.48
AMKcitrate [2, 9]: 3.29
AMKfree [2, 9]: 6.81
AMKperm [2, 9]: 10.1 µg/mL
Pcit AMK-Citrate binding coefficient ([2]; slope of AMKcit/AMKf vs citrate concentration): 0.076 mM⁻¹
AMK binding to alginate [3, 10]: ~30%
Amikacin not bound to alginate (%) ([4]; Control (no acid salt named)): 17.7%
Alginate binding efficiency ([5]; no citrate, total amikacin 0.5 mg/mL): 85.5%
Compound: NCC[C@H](O)C(=O)N[C@@H]1C[C@H](N)[C@@H](O[C@H]2O[C@H](CN)[C@@H](O)[C@H](O)[C@H]2O)[C@H](O)[C@H]1O[C@H]1O[C@H](CO)[C@@H](O)[C@H](N)[C@H]1O [amikacin]
binding capacity of alginate [3]: at least 0.05 mg amikacin per mg alginate
Amikacin not bound to alginate (%) ([3]; Alg + Citrate pH 5, alginate 1%, citrate 80 mM, amikacin 100 ug/mL): 56.4%
Amikacin not bound to alginate (%) ([3]; Alg + Citrate pH 6, alginate 1%, citrate 80 mM, amikacin 100 ug/mL): 70.4%
Amikacin not bound to alginate (%) ([3]; Alg + Citrate pH 7, alginate 1%, citrate 80 mM, amikacin 100 ug/mL): 68.1%
Amikacin not bound to alginate (%) ([3]; Alg, no Citrate, alginate 1%, amikacin 100 ug/mL): 11.9%
Amikacin not bound to alginate (%) ([3]; Alg, no Citrate, alginate 1%, amikacin 100 ug/mL, listed as AMK): 12%
unbound AMK [3, 10]: ~70%
AMK bound by alginate ([3]; Alginate 1%, absence of citrate): ~88%
Amikacin not bound to alginate (%) ([3]; Citrate, no Alginate): 100%
Zone size (mm) (P. Aeruginosa PAC1; Alginate 1%): 21 mm
Zone size (mm) (P. Aeruginosa PAC1; Alginate + Citrate): 28 mm and 29 mm
Zone size (mm) (P. Aeruginosa PAC1; Citrate 100 mM): 28 mm
effect on activity of amikacin (in words) (P. Aeruginosa PAC1; Citrate at concentration 100 mM): does not affect activity
Zone size (mm) (P. Aeruginosa PAC1; Control, MH medium without supplements): 28 mm and 29 mm
effect on activity of amikacin (in words) (P. Aeruginosa PAC1; both alginate and citrate present): citrate actually restored activity of amikacin
Amikacin not bound to alginate (%) ([5]; Alg, no Citrate, AMK 0.5 mg/mL): 14.5%

Amikacin not bound to alginate (%) [4, 11]: 72.1%
Compound: O=C(O)CC(O)(CC(=O)O)C(=O)O [Sodium citrate]

Compound: Sodium tartarate
Amikacin not bound to alginate (%) [4, 11]: 41.4%
Amikacin not bound to alginate (%) ([4]; 0.1 mL 1 mg/ml amikacin sulfate + 0.4 mL 1% Na Alginate + 0.5 mL 200 mM Na salt of the acid, pH 6.0, 10 minutes at 37° C., listed as taratrate): ~40%

Compound: O=C([O-])CCCC(=O)[O-].[Na+].[Na+] [Sodium glutarate]
Amikacin not bound to alginate (%) [4, 11]: 36.7%
Amikacin not bound to alginate (%) ([4]; 0.1 mL 1 mg/ml amikacin sulfate + 0.4 mL 1% Na Alginate + 0.5 mL 200 mM Na salt of the acid, pH 6.0, 10 minutes at 37° C., listed as glutarate): ~40%

Amikacin not bound to alginate (%) [4, 11]: 40.2%
Amikacin not bound to alginate (%) ([4]; 0.1 mL 1 mg/ml amikacin sulfate + 0.4 mL 1% Na Alginate + 0.5 mL 200 mM Na salt of the acid, pH 6.0, 10 minutes at 37° C., listed as succinate): ~40%
Compound: O=C([O-])CCC(=O)[O-].[Na+].[Na+] [Sodium succinate]

Compound: CC(=O)[O-].[Na+] [Sodium acetate]
Amikacin not bound to alginate (%) [4, 11]: 11.2%
effect of the salt on unbound amikacin (in words) ([4]; as Table 4): not showing any increase in unbound amikacin

Compound: O=C([O-])/C=C\C(=O)[O-].[Na+].[Na+] [Sodium maleate]
Amikacin not bound to alginate (%) [4, 11]: 39.4%
Amikacin not bound to alginate (%) ([4]; 0.1 mL 1 mg/ml amikacin sulfate + 0.4 mL 1% Na Alginate + 0.5 mL 200 mM Na salt of the acid, pH 6.0, 10 minutes at 37° C., listed as maleate): ~40%
